According to BindingDB's records for doi:10.1021/acs.jmedchem.9b01226 (Purdue University, 2020):

Experiments:
[1] = target: T1, Proteasome subunit beta type-8 (Homo sapiens, UniProt P28062); assay: Inhibition of immunoproteasome subunit […] in human OPM1 cells assessed as reduction in cell viability incubated for 48 hrs by MTT assay
T1 sequence (P28062 whole entry): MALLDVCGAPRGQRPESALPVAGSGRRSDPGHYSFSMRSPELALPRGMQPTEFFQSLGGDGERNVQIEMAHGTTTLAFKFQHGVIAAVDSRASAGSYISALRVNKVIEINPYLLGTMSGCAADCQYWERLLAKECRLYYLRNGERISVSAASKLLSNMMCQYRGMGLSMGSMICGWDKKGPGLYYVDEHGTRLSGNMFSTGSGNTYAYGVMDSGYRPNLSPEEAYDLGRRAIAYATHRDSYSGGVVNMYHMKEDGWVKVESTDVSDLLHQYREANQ

[2] = target: T1, Proteasome subunit beta type-8; assay: Inhibition of immunoproteasome subunit LMP7 in human OPM1 cells assessed as reduction in cell viability incubated for 48 hrs by MTT assay
[3] = target: T1, Proteasome subunit beta type-8; assay: Inhibition of immunoproteasome subunit LMP7 in human KMS12PE cells assessed as reduction in cell viability incubated for 48 hrs by MTT assay
[4] = target: T1, Proteasome subunit beta type-8; assay: Inhibition of immunoproteasome subunit LMP7 in human LR5 cells assessed as reduction in cell viability incubated for 48 hrs by MTT assay
[5] = target: T1, Proteasome subunit beta type-8; assay: Inhibition of immunoproteasome subunit LMP7 in human DOX40 cells assessed as reduction in cell viability incubated for 48 hrs by MTT assay
[6] = target: T1, Proteasome subunit beta type-8; assay: Inhibition of immunoproteasome subunit LMP7 in human RPMI8226 cells assessed as reduction in cell viability incubated for 48 hrs by MTT assay
[7] = target: T1, Proteasome subunit beta type-8; assay: Inhibition of immunoproteasome subunit LMP7 in human MM.1R cells assessed as reduction in cell viability incubated for 48 hrs by MTT assay
[8] = target: T1, Proteasome subunit beta type-8; assay: Inhibition of immunoproteasome subunit LMP7 in human MM.1S cells assessed as reduction in cell viability incubated for 48 hrs by MTT assay
[9] = target: T1, Proteasome subunit beta type-8; assay: Inhibition of immunoproteasome subunit LMP7 in human INA60 cells assessed as reduction in cell viability incubated for 48 hrs by MTT assay

Measured: IC50

CC1=C(C(=O)N[C@H](C)C(=O)N[C@@H](Cc2c[nH]c3ccccc23)C(=O)N[C@@H](Cc2ccccc2)C(=O)[C@@]2(C)CO2)Cc2ccccc21
3000 nM: [1] | [2] | [3] | [4] | [5] | [6] | [7] | [8] | [9]
